Experiments:
2D2-TCR MOG (2D2) mice = assay: 2D2 mouse model of optic neuritis, myelin staining of the optic nerve; format: in vivo; settings: for Number of animals, average myelin content score Low / Number of animals, average myelin content score high / Number of animals, average myelin content score moderate: sulfasalazine 200 mg/kg or memantine 5 mg/kg IP BID
Text: This model serves as an inducible model of optic neuritis with a high rate of penetrance. The development of optic neuritis was monitored by animal observation and histopathology.
Female 2D2 (strain C57BL/6-Tg(Tcra2D2,Tcrb2D2)1Kuch/J) and WT mice (C57BL/6) were purchased from The Jackson Laboratory. Each cohort size was 14 animals. Mice were delivered to Ophthy-DS (Kalamazoo, Mich.) under the supervision of Renovo Neural (Cleveland, Ohio) at 8-12 weeks of age and then acclimated for an additional 4 weeks before beginning the experiment. Animals were housed in pathogen-free, individually-ventilated, enriched cages on a 12 h:12 h light:dark cycle with food and water ad libitum. Mice were monitored daily for welfare and symptoms of optic neuritis.
After 4 weeks of acclimation, animals were randomized by weight into 4 groups of 14 animals each. To induce optic neuritis, 200 ng of Pertussis toxin was injected into the 2D2 animals on days 1 and 3 as described by Guan et al. Dosing of vehicle or treatment compounds began at day 1. The four cohorts are: • (1) WT mice (C57BL/6) treated with vehicle (200 μl saline IP, BID). This cohort serves as a control for the readouts of optic neuritis disease. • (2) 2D2 mice vehicle treated with vehicle (200 μl saline IP, BID). […] The memantine-treated group served as a control for anti-glutamatergic therapy in the 2D2 model of optic neuritis.
On day 30, animals were euthanized and perfused. Optic nerves and retinas were dissected out and embedded in paraffin and sections mounted on slides. 5-7 sections of the optic nerve (from one eye) from ten animals in each cohort were stained by Toluidine Blue. Histopathological analysis of the slides and quantitation of the myelin staining intensity was performed blinded by a board-certified pathologist, Dr. Igor Polyakov (Minneapolis, Minn.). Staining intensity of each slide was graded as either low, moderate or high. Both peripheral and central sections of the optic nerve were graded. The intensity of the myelin staining between the cohorts on a per section and a per animal basis was compared using chi-square and Fishers' exact test with a p<0.05 considered significant.
On a per animal basis, this yielded 20 scores per cohort: average score per section×2 scores per animal (peripheral or central)×10 animals per cohort. On a per section basis, this yielded approximately 110 score per cohort: score per section×5-7 sections per animal×2 scores per section (peripheral or central)×10 animals per cohort.

[1] = system: xCT mRNA in primary rat astrocyte cells; assay: qPCR of xCT mRNA in primary astrocytes; format: cell-based; settings: astrocyte media
Experimental: (§1) Primary rat astrocyte cells were purchased from All Cells (Catalog #RCTX-001F, Alameda, Calif.), thawed and resuspended in 13.4 ml of DMEM media (Catalog #12-614F, Lonza, Allendale, N.J.) supplemented with 15% v/v FBS (Catalog #F4135, Sigma-Aldrich, St. Louis, Mo.) and 560 μL aliquoted into wells in a 24-well plate. Cells were incubated at 37° C. with 5% CO2. For each qPCR experiment, 2-3 wells (approximately 42,000-63,000 cells) were transferred to a new 24-well plate with fresh astrocyte media, composed of 50% v/v DMEM, 50% v/v Neurobasal media (Catalog #12348-017), Life Technologies, supplemented with 2 mM glutamine, 300 μM L-cystine. Following 24 hours, cells were then mixed and aliquoted into 24 well plates at approximately 10,000 cells per well in the same media. Compounds to be tested were then added at the indicated concentrations and cells harvested 18 hours later by washing once with PBS (Catalog #P5493, Sigma-Aldrich) and then treated with 300 μl of StemProAccutase cell dissociation reagent (Catalog #A11105-01, Life Technologies) and incubated for 5-10 minutes at 37° C. PBS (300 μl) was added and the cells spun down in a microfuge for 5 minutes at 2,000×g at 4° C. The supernatant was removed and mRNA was isolated from the cells by using the Purelink microscale RNA extraction kit (Catalog #12183016, Life Technologies) according to the manufacturer's instructions. The mRNA resuspended in 12-22 μl of RNase-free water. cDNA was prepared by use of the Superscript VILO kit (Catalog #11755050, Life Technologies) according to the manufacturer's instructions. The cDNA was eluted in a final volume of 20 μl RNase-free water in and 4 μl was used for each qPCR reaction. qPCR reactions and primers were as described in Example 11.
(§2) To determine if tunicamycin increased levels of xCT mRNA, Tunicamycin (5 ng/ml) was added to the primary astrocyte cell cultures in astrocyte media. xCT gene expression was determined by qPCR after 18 hours of exposure to tunicamycin.
(§3) The Cycle threshold is abbreviated Ct. The change in Ct equals [Ct (minus test agent)−Ct (plus test agent)]. Changes in Ct of the test genes xCT and Lcn-2 are normalized by subtracting the change in Ct of the control gene, either gamma-actin or Hypoxanthine-guanine phosphoribosyl transferase (HPRT). Ct values are converted to absolute values by the formula: absolute value=2^^(normalized change in Ct). Absolute values are converted to percent change by multiplying the absolute value by 100.
(§4) Using the methods described in Example 11, various agents known to cause activation of neuroinflammatory cells and/or cause or reflect stress and damage to neurons, axons and/or oligodendrocytes were tested for causing an increase in xCT levels in primary rat astrocytes.

[2] = system: Lcn-2 mRNA in primary rat astrocyte cells; assay: qPCR of Lcn-2 mRNA in primary astrocytes; format: cell-based; settings: astrocyte media
Experimental: as §1, §2, §3, §4

[3] = Total (central + peripheral, 20 scores), day 30
[4] = per section basis, Central Region, day 30
[5] = per section basis, Peripheral Region, day 30
[6] = per section basis, Total, day 30
[7] = 200 ng/ml, control gene gamma-actin
[8] = 20 ng/ml, control gene gamma-actin
[9] = 100 ng/ml, control gene gamma-actin
[10] = 50 μM, control gene gamma-actin
[11] = 2 μg/ml, control gene gamma-actin
[12] = 20 ug/ml, control gene gamma-actin
[13] = 1 ng/ml, control gene gamma-actin

## CC12CC3CC(C)(C1)CC(N)(C3)C2 [memantine]
2D2-TCR MOG (2D2) mice; Central Region, day 30
  Number of animals, average myelin content score Low: 0
  Number of animals, average myelin content score high: 3
  Number of animals, average myelin content score moderate: 7
2D2-TCR MOG (2D2) mice; Peripheral Region, day 30
  Number of animals, average myelin content score Low: 2
  Number of animals, average myelin content score high: 3
  Number of animals, average myelin content score moderate: 5
2D2-TCR MOG (2D2) mice; [3]
  Number of animal scores, myelin content High: 6
  Number of animal scores, myelin content Low: 2
  Number of animal scores, myelin content Moderate: 12
2D2-TCR MOG (2D2) mice; optic nerve, day 30
  myelin content compared to the vehicle-treated 2D2 animals: highly significant increase in myelin content
2D2-TCR MOG (2D2) mice; [4]
  Number of sections, myelin content Low: 0
  Number of sections, myelin content high: 14
  Number of sections, myelin content moderate: 41
2D2-TCR MOG (2D2) mice; [5]
  Number of sections, myelin content Low: 10
  Number of sections, myelin content high: 14
  Number of sections, myelin content moderate: 31
2D2-TCR MOG (2D2) mice; [6]
  Number of section scores, myelin content High: 28
  Number of section scores, myelin content Low: 10
  Number of section scores, myelin content Moderate: 72
2D2-TCR MOG (2D2) mice; per-animal basis
  Percent scores, Myelin content-Total High: 30%
  Percent scores, Myelin content-Total Low: 10%
  Percent scores, Myelin content-Total Moderate: 60%
2D2-TCR MOG (2D2) mice; per-section basis
  Percent scores, Myelin content-Total High: 25%
  Percent scores, Myelin content-Total Low: 9%
  Percent scores, Myelin content-Total Moderate: 65%

## Pam2CSK4
[1]; [7]
  xCT, Change in Ct normalized to control gene: 0.65
  xCT, Fold change normalized: 1.57
  xCT, Percent change normalized: 157%
[2]; [7]
  Lcn-2, Percent change normalized: 1,602%

## IL-6: inflammatory cytokine
[1]; [8]
  xCT, Change in Ct normalized to control gene: 0.366
  xCT, Fold change normalized: 1.29
  xCT, Percent change normalized: 129%
[1]; [9]
  xCT, Change in Ct normalized to control gene: 0.380
  xCT, Fold change normalized: 1.30
  xCT, Percent change normalized: 130%
[2]; [8]
  Lcn-2, Percent change normalized: 146%
[2]; [9]
  Lcn-2, Percent change normalized: 130%

## OO [H2O2, Hydrogen Peroxide]
[1]; 5 μM, control gene gamma-actin
  xCT, Change in Ct normalized to control gene: 2.484
  xCT, Fold change normalized: 5.59
  xCT, Percent change normalized: 559%
[1]; [10]
  xCT, Change in Ct normalized to control gene: 2.588
  xCT, Fold change normalized: 6.01
  xCT, Percent change normalized: 601%
[2]; 5 μM, control gene gamma-actin
  Lcn-2, Percent change normalized: 15%
[2]; [10]
  Lcn-2, Percent change normalized: 19%

## A-beta 1-40: A-beta 1-40 peptide, misfolded/aggregated protein
[1]; [11]
  xCT, Change in Ct normalized to control gene: 0.276
  xCT, Fold change normalized: 1.21
  xCT, Percent change normalized: 121%
[1]; [12]
  xCT, Change in Ct normalized to control gene: 0.951
  xCT, Fold change normalized: 1.93
  xCT, Percent change normalized: 193%
[2]; [11]
  Lcn-2, Percent change normalized: 130%
[2]; [12]
  Lcn-2, Percent change normalized: 140%

## IL1-beta: inflammatory cytokine
[1]; 1 ng/ml, control gene HPRT
  xCT, Change in Ct normalized to control gene: 1.536
  xCT, Fold change normalized: 2.90
  xCT, Percent change normalized: 290%
[1]; [13]
  xCT, Change in Ct normalized to control gene: 1.538
  xCT, Fold change normalized: 2.90
  xCT, Percent change normalized: 290%
[1]; 100 ng/ml, control gene HPRT
  xCT, Change in Ct normalized to control gene: 1.515
  xCT, Fold change normalized: 2.86
  xCT, Percent change normalized: 286%
[1]; [9]
  xCT, Change in Ct normalized to control gene: 2.560
  xCT, Fold change normalized: 5.90
  xCT, Percent change normalized: 590%
[2]; 1 ng/ml, control gene HPRT
  Lcn-2, Percent change normalized: 23,480%
[2]; [13]
  Lcn-2, Percent change normalized: 23,522%
[2]; 100 ng/ml, control gene HPRT
  Lcn-2, Percent change normalized: 9,185%
[2]; [9]
  Lcn-2, Percent change normalized: 18,958%
